Tested on: HCV genotype-1a variant with glutamine 30 changed to glutamate in the NS5A protein
Type: cell-based
Details: test compound titrated with BMS-790052 fixed at 200 nM; genotype 1a Q30E replicon
Procedure, shortened: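 Synergy was assessed by combining several fixed amounts of an NS5A-targeting compound with a titration of the second compound of interest.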

Structure (SMILES) | Fold-Synergistic 1a (Q30E)
CC(C)[C@H](NC(=O)[C@@H](C)c1ccccc1)c1ncc(-c2ccc(-c3ccc(-c4cnc([C@@H](NC(=O)[C@@H](C)c5ccccc5)C(C)C)[nH]4)cc3)cc2)[nH]1 [Compound P-62] | >100 fold
CC(C)(C)[C@H](NC(=O)C1CCN(S(C)(=O)=O)CC1)c1nc(-c2ccc(-c3ccc(-c4c[nH]c([C@@H](NC(=O)C5CCN(S(C)(=O)=O)CC5)C(C)(C)C)n4)cc3)cc2)c[nH]1 [Compound S-255] | >100 fold
CC(C)OC(=O)NC(C)(C)C(=O)N[C@H](c1nc(-c2ccc(-c3ccc(-c4c[nH]c([C@@H](NC(=O)C(C)(C)NC(=O)OC(C)C)C(C)(C)C)n4)cc3)cc2)c[nH]1)C(C)(C)C [Compound Q-3] | >100 fold
CC(C)(C)[C@H](NC(=O)C1CC(=O)C1)c1nc(-c2ccc(-c3ccc(-c4c[nH]c([C@@H](NC(=O)C5CC(=O)C5)C(C)(C)C)n4)cc3)cc2)c[nH]1 [Compound W-171] | >100 fold
O=C(N1CCC(F)(F)CC1)C1(c2nc(-c3ccc(-c4ccc(-c5c[nH]c(C6(C(=O)N7CCC(F)(F)CC7)CCC6)n5)cc4)cc3)c[nH]2)CCC1 [Compound P-137] | >10 fold
CC(C)[C@H](NC(=O)C(=O)C1(C)CCCO1)c1ncc(-c2ccc(-c3ccc(-c4cnc([C@@H](NC(=O)C(=O)C5(C)CCCO5)C(C)C)[nH]4)cc3)cc2)[nH]1 (stereo partly shown) [Compound P-118] | >100 fold
CC(C)[C@H](NC(=O)[C@@H]1CCCO1)c1ncc(-c2ccc(-c3ccc(-c4cnc([C@@H](NC(=O)[C@@H]5CCCO5)C(C)C)[nH]4)cc3)cc2)[nH]1 [Compound P-66] | >100 fold
O=C(N1CCC[C@H]1c1ncc(-c2ccc(-c3ccc(-c4cnc([C@@H]5CCCN5C(=O)C5(c6ccc(F)cc6Cl)CCCC5)[nH]4)cc3)cc2)[nH]1)C1(c2ccc(F)cc2Cl)CCCC1 [Compound S-156] | <10 fold
CC(C)CC(=O)N[C@H](c1nc(-c2ccc(-c3ccc(-c4nc([C@@H](NC(=O)CC(C)C)C(C)C)[nH]c4Cl)cc3)cc2)c(Cl)[nH]1)C(C)C [Compound P-48] | >100 fold
CC(C)C(NC(=O)C1C2CC2CN1C(=O)OC(C)(C)C)c1nc(-c2ccc(-c3ccc(-c4c[nH]c(C(NC(=O)C5C6CC6CN5C(=O)OC(C)(C)C)C(C)C)n4)cc3)cc2)c[nH]1 (stereo not shown) [Compound W-74] | >100 fold
CC(C)[C@H](NC(=O)C1CCC(F)(F)CC1)c1ncc(-c2ccc(-c3ccc(-c4cnc([C@@H](NC(=O)C5CCC(F)(F)CC5)C(C)(C)C)[nH]4)cc3)cc2)[nH]1 [Compound Y-42] | >100 fold
COC(=O)NN(C(=O)[C@@H]1CCC[C@H]1c1nc(-c2ccc(-c3ccc(-c4cnc([C@@H]5CCC[C@H]5C(=O)N(NC(=O)OC)C(C)C)[nH]4)cc3)cc2)c[nH]1)C(C)C [Compound V-1] | >100 fold
CC(C)CC(=O)NC1(c2ncc(-c3ccc(-c4ccc(-c5cnc(C6(NC(=O)CC(C)C)CCC6)[nH]5)cc4)cc3)[nH]2)CCC1.O=C(O)C(F)(F)F.O=C(O)C(F)(F)F [Compound N-11] | <10 fold
CC(C)(C)C(NC(=O)C1CCCO1)c1nc(-c2ccc(-c3ccc(-c4c[nH]c(C(NC(=O)C5CCCO5)C(C)(C)C)n4)cc3)cc2)c[nH]1 [Compound L-64] | >100 fold
CC(C)[C@H](NC(=O)C(C)(C)OCC(F)F)c1nc(-c2ccc(-c3ccc(-c4c[nH]c([C@@H](NC(=O)C(C)(C)OCC(F)F)C(C)C)n4)cc3F)cc2)c[nH]1.O=C(O)C(F)(F)F [Compound N-98] | >100 fold
CC(C)(C)C(NC(=O)CC1CCOC2(CC2)C1)c1nc(-c2ccc(-c3ccc(-c4c[nH]c(C(NC(=O)CC5CCOC6(CC6)C5)C(C)(C)C)n4)cc3)cc2)c[nH]1 (mixture of isomers) [Compound L-75] | >100 fold
O=C(Oc1ccccc1)N1CCC[C@H]1c1ncc(-c2ccc(-c3ccc(-c4cnc([C@@H]5CCCN5C(=O)Oc5ccccc5)[nH]4)cc3)cc2)[nH]1 [Compound S-223] | >100 fold
CC(C)(C)[C@H](NC(=O)C(O)(CF)CF)c1nc(-c2ccc(-c3ccc(-c4c[nH]c([C@@H](NC(=O)C(O)(CF)CF)C(C)(C)C)n4)cc3)cc2)c[nH]1 [Compound N-140] | >100 fold
CC1(C)CCN(C(=O)C(=O)N2C(C)(C)CCCC2(C)C)C1c1nc(-c2ccc(-c3ccc(-c4c[nH]c(C5N(C(=O)C(=O)N6C(C)(C)CCCC6(C)C)CCC5(C)C)n4)cc3)cc2)c[nH]1.O=C(O)C(F)(F)F.O=C(O)C(F)(F)F (stereo not shown) [Compound W-246] | >100 fold
COCC(NC(=O)C(C)(C)C)c1nc(-c2ccc(-c3ccc(-c4c[nH]c(C(COC)NC(=O)C(C)(C)C)n4)cc3)cc2)c[nH]1 [Compound L-105] | >100 fold
COCC(NC(=O)C1(C(F)(F)F)CCC1)c1nc(-c2ccc(-c3ccc(-c4c[nH]c(C(COC)NC(=O)C5(C(F)(F)F)CCC5)n4)cc3)cc2)c[nH]1 [Compound L-104] | >100 fold
CC(C)(C)[C@H](NC(=O)[C@@]1(C)CCC(F)(F)CO1)c1ncc(-c2ccc(-c3ncc(-c4cnc([C@@H](NC(=O)[C@@]5(C)CCC(F)(F)CO5)C(C)(C)C)[nH]4)cn3)cc2)[nH]1 [Compound Y-84, (R)—N—((S)-1-(5-(2-(4-(2-((S)-1-((R)-5,5-difluoro-2-methyltetrahydro-2H-pyran-2-carboxamido)-2,2-dimethylpropyl)-1H-imidazol-5-yl)phenyl)pyrimidin-5-yl)-1H-imidazol-2-yl)-2,2-dimethylpropyl)-5,5-difluoro-2-methyltetrahydro-2H-pyran-2-carboxamide] | >100 fold
COC(=O)N[C@@H](C(=O)N[C@H](c1nc(-c2ccc(-c3ccc(-c4c[nH]c([C@@H](NC(=O)[C@H](NC(=O)OC)C(C)C)C(C)(C)C)n4)cc3)cc2)c[nH]1)C(C)(C)C)C(C)C [Compound N-28] | >100 fold
CC(C)[C@H](NC(=O)C(C)(C)C)c1nc2ccc(C#Cc3ccc4nc([C@@H](NC(=O)C(C)(C)C)C(C)C)[nH]c4c3)cc2[nH]1.O=C(O)C(F)(F)F [Compound B43] | >100 fold
CC(C)[C@H](NC(=O)c1cc(C(C)(C)C)nn1C)c1ncc(-c2ccc(-c3ccc(-c4cnc([C@@H](NC(=O)c5cc(C(C)(C)C)nn5C)C(C)C)[nH]4)cc3)cc2)[nH]1 [Compound S-101] | >100 fold
CC1(C(=O)N[C@H](c2nc(-c3ccc(-c4ccc(-c5c[nH]c([C@@H](NC(=O)C6(C)CCC(F)(F)CC6)C(C)(C)C)n5)cc4)cc3)c[nH]2)C(C)(C)C)CCC(F)(F)CC1 [Compound P-20] | >100 fold
COC(C)(CCOCc1ccccc1)C(=O)N[C@H](c1nc(-c2ccc(-c3ccc(-c4c[nH]c([C@@H](NC(=O)C(C)(CCOCc5ccccc5)OC)C(C)(C)C)n4)cc3)cc2)c[nH]1)C(C)(C)C (single isomer, unassigned) [Compound W-256b] | >100 fold
COC(c1ccccc1)C1(C(=O)N[C@H](c2nc(-c3ccc(-c4ccc(-c5c[nH]c([C@@H](NC(=O)C6(C(OC)c7ccccc7)CC6)C(C)(C)C)n5)cc4)cc3)c[nH]2)C(C)(C)C)CC1 (single isomer, unassigned) [Compound N-137B] | >100 fold

From patent US20160158200A1, “Combinations of Hepatitis C Virus Inhibitors” (priority 2013, published 2016)
